Data from US5091399A, “Antimicrobial compounds and methods of use” (Rohm and Haas Company, priority 1990, dated 1992).
Values after ≈ are worked out from the molar mass of the structure shown.

Columns and labels:
Test in all cases: MIC test (biocide), serial dilution in Trypticase Soy Broth
Assay type in all cases: cell-based
Aspergillus niger = conditions: pH 7.0, starting concentration 500 ppm
Procedure: (§1) Efficacy tests against eight fungi and four bacteria was carried out. A minimum inhibitory concentration (MIC) value was obtained using Trypticase Soy Broth, pH 7.0, and by preparing serial dilutions with a starting concentration of 500 ppm. A stock solution of the test compound was made in dimethyl sulfoxide (DMSO) or acetone. The MIC's of the compounds of this invention against the test organisms are shown in Table 3. |Test was run in Trypticase Soy Broth, pH 7.0 Starting concentration = 500

Aureobasidium pullulans = conditions: pH 7.0, starting concentration 500 ppm
Procedure: as §1

Chaetomium globosum = conditions: pH 7.0, starting concentration 500 ppm
Procedure: as §1

Cladosporium resinae = conditions: Amorphotheca resinae, pH 7.0, starting concentration 500 ppm
Procedure: as §1

Escherichia coli = conditions: pH 7.0, starting concentration 500 ppm
Procedure: as §1

Gleophyllum trabeum = conditions: pH 7.0, starting concentration 500 ppm
Procedure: as §1

Penicillium funiculosum = conditions: Talaromyces funiculosus, pH 7.0, starting concentration 500 ppm
Procedure: as §1

Pseudomonas aeruginosa = conditions: pH 7.0, starting concentration 500 ppm
Procedure: as §1

Pseudomonas fluorescens = conditions: pH 7.0, starting concentration 500 ppm
Procedure: as §1

Rhodotorula rubra = conditions: pH 7.0, starting concentration 500 ppm
Procedure: as §1

Saccharomyces cerevisiae = conditions: pH 7.0, starting concentration 500 ppm
Procedure: as §1

Staphylococcus aureus = conditions: pH 7.0, starting concentration 500 ppm
Procedure: as §1

Chorella = conditions: pH 7.0, starting concentration 500 ppm
Procedure: as §1

SMILES	MIC (Aspergillus niger)	MIC (Aureobasidium pullulans)	MIC (Chaetomium globosum)	MIC (Cladosporium resinae)	MIC (Escherichia coli)	MIC (Gleophyllum trabeum)	MIC (Penicillium funiculosum)	MIC (Pseudomonas aeruginosa)	MIC (Pseudomonas fluorescens)	MIC (Rhodotorula rubra)	MIC (Saccharomyces cerevisiae)	MIC (Staphylococcus aureus)	MIC (Chorella)
Cn1sc(Sc2nc3ccccc3s2)cc1=O [Compound 1, (2-methyl-4-isothiazolin-3-on-5-yl)-(benzothiazol-2'-yl)sulfide]	8 µg/mL (≈ 28.5 µM)	16 µg/mL (≈ 57.1 µM)	32 µg/mL (≈ 114 µM)	1 µg/mL (≈ 3.57 µM)	500 µg/mL (≈ 1780 µM)	< 0.1 µg/mL	8 µg/mL (≈ 28.5 µM)	> 500 µg/mL	8 µg/mL (≈ 28.5 µM)	16 µg/mL (≈ 57.1 µM)	8 µg/mL (≈ 28.5 µM)	4 µg/mL (≈ 14.3 µM)	
CCCCCCCCn1sc(Sc2nc3ccccc3s2)c(Cl)c1=O [Compound 2, [4-chloro-2-(n-octyl)-4-isothiazolin-3-on-5-yl]-(benzothiazol-2'-yl)sulfide]	63 µg/mL (≈ 153 µM)	32 µg/mL (≈ 77.5 µM)			> 250 µg/mL			> 250 µg/mL				1 µg/mL (≈ 2.42 µM)	4 µg/mL (≈ 9.68 µM)
Cc1c(Sc2nc3ccccc3s2)sn(-c2ccc(Cl)cc2)c1=O [Compound 3, [4-methyl-2-(4-chlorophenyl)-4-isothiazolin-3-on-5-yl]-(benzothiazol-2'-yl)sulfide]	12.5 µg/mL (≈ 32 µM)							12.5 µg/mL (≈ 32 µM)	0.4 µg/mL (≈ 1.02 µM)				
